Measurements published in PubChem BioAssay (NCI).
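96-well plates; 48 h exposure; 5 concentrations. Endpoints by linear interpolation between flanking doses. Not reached: highest tested concentration assigned. The concentration for 50% growth inhibition is given as GI50. At the TGI there is no net growth.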

Columns and labels:
Test in all cases: NCI tumour cell line growth inhibition, 48 h
SK-OV-3 ovarian = system: SK-OV-3 ovarian
SK-MEL-5 melanoma = system: SK-MEL-5 melanoma
OVCAR-8 ovarian = system: OVCAR-8 ovarian
K-562 leukemia = system: K-562 leukemia
NCI-H522 lung = system: NCI-H522 lung
UACC-62 melanoma = system: UACC-62 melanoma
A549 NSCLC = system: A549 NSCLC
OVCAR-3 ovarian = system: OVCAR-3 ovarian
SF-539 CNS = system: SF-539 CNS
CCRF-CEM leukemia = system: CCRF-CEM leukemia

SMILES | TGI (SK-OV-3 ovarian) [µM] | TGI (SK-MEL-5 melanoma) [µM] | TGI (OVCAR-8 ovarian) [µM] | TGI (K-562 leukemia) [µM] | TGI (NCI-H522 lung) [µM] | TGI (UACC-62 melanoma) [µM] | TGI (A549 NSCLC) [µM] | TGI (OVCAR-3 ovarian) [µM] | TGI (SF-539 CNS) [µM] | TGI (CCRF-CEM leukemia) [µM] | GI50 (SK-OV-3 ovarian) [µM] | GI50 (SK-MEL-5 melanoma) [µM] | GI50 (OVCAR-8 ovarian) [µM] | GI50 (K-562 leukemia) [µM] | GI50 (NCI-H522 lung) [µM] | GI50 (UACC-62 melanoma) [µM] | GI50 (A549 NSCLC) [µM] | GI50 (OVCAR-3 ovarian) [µM] | GI50 (CCRF-CEM leukemia) [µM] | GI50 (SF-539 CNS) [µM]
O=C(O)[C@@H]1[C@H](C(=O)O)[C@H](C(=O)O)C[C@@H]1C(=O)O | > 100 | > 100 | > 100 | > 100 | > 100 | > 100 | > 100 | > 100 | > 100 | – | – | – | – | – | – | – | – | – | – | –
COC[C@@H](N=CN1CCc2cc(OC)c(OC)cc2[C@@H]1C)C(C)(C)C | > 100 | > 100 | > 100 | > 100 | > 100 | > 100 | > 100 | > 100 | > 100 | > 100 | – | – | – | – | – | – | – | – | – | –
O=C1C=C(NCCNC(=S)Nc2ccccc2)c2nccc3c2c1nc1ccccc13 | > 100 | > 100 | > 100 | > 100 | > 100 | 73 | > 100 | > 100 | > 100 | > 100 | > 100 | 27.5 | > 100 | 35.1 | 46.8 | 20.6 | 44.7 | 18.1 | > 100 | 49.1
NC1CCCCC1.[O]=[Ge].[O]=[Ge].[O]=[Ge][OH].[O]=[Ge][OH] | – | > 100 | > 100 | > 100 | – | > 100 | > 100 | > 100 | > 100 | > 100 | – | – | – | – | – | – | – | – | – | –
COc1cc2c(c(OC)c1OC)-c1ccc(N)c(=O)cc1[C@@H](NC(C)=O)CC2 | > 100 | – | > 100 | > 100 | < 0.021 | > 100 | > 100 | 0.0362 | > 100 | > 100 | 0.0388 | – | 0.0477 | < 0.014 | < 0.0114 | 0.0379 | 0.0563 | < 0.012 | < 0.0147 | 0.0289
COc1cc(CCN)c2c(c1OC)SSSSS2 | – | 2.23 | 2.71 | > 100 | 0.849 | 2.97 | 2.71 | 0.538 | 2.62 | – | – | 0.712 | 1.22 | 0.629 | 0.203 | 1.37 | 1.38 | 0.204 | 0.395 | 1.25
O=C(c1ccc(Cl)cc1)c1ccc(OCCCCCCCCCCOc2ccc(C(=O)c3ccc(Cl)cc3)cc2)cc1 | > 100 | > 100 | > 100 | > 100 | > 100 | > 100 | > 100 | > 100 | – | > 100 | – | – | – | – | – | – | – | – | – | –
NCCCOCC(=O)O | > 100 | > 100 | > 100 | > 100 | – | > 100 | > 100 | > 100 | > 100 | – | – | – | – | – | – | – | – | – | – | –
COc1ccc(Nc2ncc(Br)c(NCCCNC(=O)C3CCC3)n2)cc1 | 36.6 | 35.1 | > 100 | > 100 | > 100 | 36.3 | 37.8 | 48.5 | 18.5 | 98.1 | 14.1 | 13 | 21.1 | 9.27 | 24 | 17.7 | 14.3 | 16.5 | 4.49 | 3.69
O=C(Nc1ccc(Cl)cc1Cl)C(=O)C(C(=O)c1ccc2ccccc2c1)C1OC(=O)c2ccccc21 (stereo not given) | > 100 | 26.1 | 34.6 | – | – | 46.7 | 73.6 | 26.1 | 11.7 | – | – | – | – | – | – | – | – | – | – | –
COC(=O)C(C(=O)C(=O)Nc1ccc(C(F)(F)F)cc1[N+](=O)[O-])c1csc(-n2nc(-c3ccccc3)cc2-c2ccccc2)n1 (stereo not given) | > 100 | – | > 100 | > 100 | > 100 | > 100 | > 100 | > 100 | > 100 | > 100 | – | – | – | – | – | – | – | – | – | –
O=C([CH-]C(=O)c1ccccc1)c1ccccc1.O=C([CH-]C(=O)c1ccccc1)c1ccccc1.O=C([CH-]C(=O)c1ccccc1)c1ccccc1.[Nd+3].[OH3+] | 29.3 | 11.8 | 22.1 | 16.7 | 7.28 | 19.2 | 31.8 | 14.8 | 45.9 | – | 5.58 | 2.79 | 3.3 | 2.8 | 2.06 | 4.3 | 8.41 | 3.01 | – | 13.7
CC1(C)C(=O)C(C)(C)C1=NN | > 100 | > 100 | > 100 | > 100 | > 100 | > 100 | > 100 | > 100 | > 100 | – | – | – | – | – | – | – | – | – | – | –
CCCCCCCNc1nc(C(=O)OCC)ncc1-c1ccc(C(F)(F)F)cc1 | > 100 | 51.9 | > 100 | > 100 | > 100 | > 100 | > 100 | > 100 | – | > 100 | 39.1 | 20.6 | 40.2 | 36.8 | 31.3 | 25.2 | > 100 | 32.6 | 29.5 | –
O=C(O)C1C2CCC(O2)C1C(=O)N1CCCCC1 (stereo not given) | 42.9 | 29.7 | 18.1 | – | 17.4 | 20.4 | > 100 | 4.66 | 23.5 | – | – | – | – | – | – | – | – | – | – | –
COc1ccccc1/C=C1\CCC(CCN(C)C)(C2=CCCC2)C1=O (stereo not given) | – | 26.7 | 34.7 | 56.2 | 27.1 | 23.5 | 64.4 | 40.6 | 29.5 | 51.6 | – | – | – | – | – | – | – | – | – | –
CCN(CC)CCNc1ccc([N+](=O)[O-])c2sc3ccccc3c(=O)c12 | 6.3 | 2.9 | 2.42 | 3.39 | – | 16.8 | 2.15 | 2.69 | 10.8 | 3.26 | 2.08 | 1.53 | 0.571 | 0.582 | – | 2.79 | 0.656 | 1.32 | 0.732 | 3.09
